Values joined by “and” are separate entries in the source; they are usually repeats but may differ in a detail not shown here. Equal entries are not always repeated.
Assays:
GLP1R [1] = biological target: T1, GLP1R (Homo sapiens, UniProt P43220); assay: HTRF cAMP assay in HEK293-SNAP_GLP1R cells, agonist and antagonist modes, with or without PAM BETP; type: cell-based; details: n = 4 independent assays; for antagonist properties against GLP-1-induced cAMP production: applied at 1 µM, 30 min GLP-1 stimulation; for agonist or partial agonist activity (cAMP): ligand alone, 30 min
T1 construct: expressed in transfected cells
T1 sequence (P43220 24-463): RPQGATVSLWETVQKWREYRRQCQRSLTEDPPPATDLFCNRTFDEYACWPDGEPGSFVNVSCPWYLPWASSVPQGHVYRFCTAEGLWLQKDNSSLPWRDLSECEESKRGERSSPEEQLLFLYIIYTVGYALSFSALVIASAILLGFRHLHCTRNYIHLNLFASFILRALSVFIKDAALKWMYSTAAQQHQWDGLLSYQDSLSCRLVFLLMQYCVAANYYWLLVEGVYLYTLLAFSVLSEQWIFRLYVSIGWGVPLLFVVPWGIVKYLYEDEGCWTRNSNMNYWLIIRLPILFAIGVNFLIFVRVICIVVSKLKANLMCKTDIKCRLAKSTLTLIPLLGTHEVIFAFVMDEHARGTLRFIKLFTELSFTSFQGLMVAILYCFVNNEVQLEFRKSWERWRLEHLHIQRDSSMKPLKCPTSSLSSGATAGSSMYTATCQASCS
Experimental: (§1) Mean ± s.e.m. are shown. **P < 0.01 for all statistical tests. Source data are provided as a Source Data file.
Potency for cAMP generation and inhibition was tested in heterologous expression systems, comprising either stable CHO-K1-SNAP_GLP1R or HEK-SNAP_GLP1R cells, or transiently transfected YFP-AD293-SNAP_GLP1R cells. Briefly, cells were incubated with increasing concentrations of compound with and without allosteric modulator for 30 min, before harvesting, lysis and measurement of cAMP using either cAMP-Glo^TM (Promega) or HTRF (Cisbio) assays, according to the manufacturer’s instructions. All assays were performed in the presence of 100–500 µM IBMX to inhibit phosphodiesterase activity. EC50 values were calculated using log concentration–response curves fitted with a three-parameter or four-parameter equation. […]
pharmacology. HTRF cAMP assays in HEK-SNAP_GLP1R cells in agonist and antagonist modes, stimulated with ligand for 30 min. Note that LUXendins are GLP1R antagonists […]
are shown. Source data are provided as a Source Data file.
(1 picture or pasted object on this page, not shown here)

GLP1R [2] = assay: Surface GLP1R expression in islets, GLP1R monoclonal antibody staining; type: cell-based, mouse; details: LUXendin555 250 nM, LUXendin645 100 nM, Ex9 250 nM
Text: as §1

GLP1R [3] = assay: Insulin secretion in isolated Glp1r+/+ and Glp1r(GE)−/− islets; type: cell-based, mouse; details: for Insulin (secreted/total): G16.7+Ex4 (10 nM), individual repeats, listed as Ex4
Text: For all statistical tests, *P < 0.05, **P < 0.01 and NS, non-significant. […] Mean ± s.e.m. are shown. Source data are provided as a Source Data file.

GLP1R [4] = assay: cAMP imaging in islets with FRET probe Epac2-camps; type: cell-based, mouse; details: Glp1r+/+ versus Glp1r(GE)−/− islets
Text: Islets were transduced with adenovirus harboring the FRET sensor, Epac2-camps[56] (a kind gift from Prof. Dermot Cooper, University of Cambridge), before imaging using a Crest X-Light spinning disk system coupled to a Nikon Ti-E base and ×10/0.4 NA objective. Excitation was delivered at λ = 430–450 nm using a Lumencor Spectra X light engine. Emitted signals were detected at λ = 460–500 and λ = 520–550 nm for Cerulean and Citrine, respectively, using a Photometrics Delta Evolve EM-CCD. Imaging was performed in HEPES–bicarbonate buffer, containing (in mmol/L) 120 NaCl, 4.8 KCl, 24 NaHCO3, 0.5 Na2HPO4, 5 HEPES, 2.5 CaCl2, 1.2 MgCl2, and 3–17 D-glucose.

S39C-Exendin4(9–39): S39C mutant of Exendin4(9–39) with a C-terminal thiol handle
antagonist properties against GLP-1-induced cAMP production (GLP1R [1]): similarly blocked | agonist or partial agonist activity (cAMP) (GLP1R [1]): No agonist or partial agonist activity was detected

Exendin4(9–39)
antagonist properties against GLP-1-induced cAMP production (GLP1R [1]): similarly blocked | agonist or partial agonist activity (cAMP) (GLP1R [1]): No agonist or partial agonist activity was detected | GLP1R surface expression in islets (GLP1R [2]): no differences

Exendin4(1–39)
Exendin4(1–39)-stimulated insulin secretion in Glp1r(GE)−/− islets (GLP1R [3]; Ex4 10 nM): absence of Exendin4(1–39)-stimulated insulin secretion | Insulin (secreted/total) (GLP1R [3]; KO islets): 0.004511 and 0.004222 and 0.01074 and 0.01469 and 0.006361 and 0.004456 and 0.008025 and 0.00578 and 0.004129 and 0.001581 and 0.003759 and 0.00219 and 0.001686 and 0.003265 and 0.005154 and 0.02304 and 0.01055 and 0.00295 | Insulin (secreted/total) (GLP1R [3]; WT islets): 0.004112 and 0.004627 and 0.005837 and 0.009517 and 0.006319 and 0.005338 and 0.01271 and 0.01517 and 0.02135 and 0.009713 and 0.003732 and 0.0026 and 0.01717 and 0.03657 and 0.02723 and 0.004332

Liraglutide (HAEGTFTSDVSSYLEGQAAKEFIAWLVRGRG; chains of the INN, looked up) [incretin-mimetic]
stimulation of cAMP rises in islets (GLP1R [4]): only able to stimulate cAMP rises in islets from wild-type
